According to patent US20250275953A1, “VODOBATINIB FOR REDUCING PROGRESSION OF PARKINSON'S DISEASE” (Sun Pharma Advanced Research Company Ltd., priority 2022, published 2025):
Read-outs that look alike come from different tables or passages of the source.

Test: Plasma pharmacokinetics, 7 once-daily oral doses, healthy volunteers
Assay type: in vivo, human
Conditions: male, human, plasma, oral
Protocol: After 28 days of screening, the subjects were studied in sequential cohorts of 6 subjects each. The study was conducted for 17 days. […] After the dose, subjects continued to fast for additional 4 hours, water was allowed ad libitum with the exception of 1 hour prior and 1-hour post dose.
The plasma and CSF samples were analyzed, by validated LC/MS-MS methods. PK analysis was conducted based on PK/PP Population: Cmax, AUC0-t, AUC0-24, AUC0-∞, Tmax, Cavg, CL/F, Cmin, t1/2, Kel, Vd (V/F; Vd/F), and Vss/F. Model-independent plasma PK parameters (Cmax, Tmax, t1/2, AUC0-t, AUC0-24, AUC0-∞, Cavg, CL/F, Vss/F, Vd/F), after the first dose (Day 1) and last dose (Day 7), Cmin on Days 2-7) was listed by subject and summarized by study cohort. In addition to the descriptive statistics listed above, geometric means was reported for the pivotal PK endpoints (CL/F, Vss/F, Vd/F, Cmin, Cavg, AUC0-t, AUC0-24, AUC0-∞, and Cmax). For CSF, PK parameters (Cmax, Tmax, t1/2, AUC0-t, AUC0-24, Cmin, Cavg, CL/F, Vss/F) was listed by subject and summarized by cohort. Ratios of CSF: plasma concentration at each time point was listed by subject and summarized by study cohort.
Forty-one healthy adult male volunteers aged 18 to 45 with body mass indexes (BMI)≥18 to ≤30 Kg/m^2 and total body weight >50 kg (110 lb) were screened in order to enroll 19 subjects with an average age of 34.2 years (range 21.5-45.6 years) into this study Six participants were randomly assigned to the 48 and 192 mg cohorts, and seven participants were assigned to the 384 mg cohort. After an overnight fast, participants received once daily doses of vodobatinib as capsules for 7 days. Serial PK blood samples to measure vodobatinib plasma concentrations were collected at pre-dose and at 0.25, 0.5, 1, 1.5, 2, 2.5, 3, 4, 6, 8, 12, 16 and 24 h post-dose after the first dose on Day 1 and the last dose on day 7. Additional PK samples prior to the morning doses were taken on Days 3-6. On the morning of Day 7, prior to dosing, an indwelling intrathecal catheter was inserted in the lumbar region (L3-L5). Serial CSF samples were collected through the catheter connected via peristaltic pump to a fraction collector. At each designated CSF collection time point, 8 mL of CSF was collected at a flow rate of 0.5 mL/min over a 16-min period at pre-dose, and 0.5, 1.0, 1.5, 2, 2.5, 3, 4, 6, 8, 12 and 24 h post-dose. The first 2 mL of CSF was discarded, and the remaining 6 mL was used for the vodobatinib assay. The occurrence of treatment-emergent adverse events (TEAEs) and serious AEs (SAEs) reported through the completion of study were collected.

Molecule `Cc1ccc(C(=O)NNC(=O)c2c(C)cccc2Cl)cc1C#Cc1cnc2ccccc2c1` [N′-(2-chloro-6-methylbenzoyl)-4-methyl-3-[2-(3-quinolyl)ethynyl]-benzohydrazide] has an AUC(0-t) (192 mg, Day 1, plasma, healthy volunteers, read-out: AUC0-24 Min, Max) of 22400 to 45600 ng·h/mL, a Cmax (192 mg, Day 1, plasma, healthy volunteers, read-out: Cmax AM) of 3780 ng/mL and a Cmax (192 mg, Day 1, plasma, healthy volunteers, read-out: Cmax GM) of 3550 ng/mL. It also gave a Cmax (192 mg, Day 1, plasma, healthy volunteers, read-out: Cmax Median) of 3180 ng/mL, a Cmax (192 mg, Day 1, plasma, healthy volunteers, read-out: Cmax Min, Max) of 2740 to 7190 ng/mL and a Tmax (192 mg, Day 1, plasma, healthy volunteers, read-out: Tmax Median) of 3.5 h. It also gave a Tmax (192 mg, Day 1, plasma, healthy volunteers, read-out: Tmax Min, Max) of 1.62 to 4 h, a Cmax (192 mg, Day 7, plasma, Healthy Subjects, Table 10, read-out: Cmax Mean) of 5380 ng/mL and a Tmax (192 mg, Day 7, plasma, Healthy Subjects, Table 10, read-out: Tmax median (range)) of 4 h. It also gave an AUC(0-t) (192 mg, Day 7, plasma, Healthy Subjects, read-out: AUC0-24 Mean) of 44100 ng·h/mL, an AUC(0-t) (192 mg, Day 7, plasma, healthy volunteers, read-out: AUC0-24 AM) of 44100 ng·h/mL and an AUC(0-t) (192 mg, Day 7, plasma, healthy volunteers, read-out: AUC0-24 GM) of 39100 ng·h/mL. It also gave an AUC(0-t) (192 mg, Day 7, plasma, healthy volunteers, read-out: AUC0-24 Median) of 40100 ng·h/mL, an AUC(0-t) (192 mg, Day 7, plasma, healthy volunteers, read-out: AUC0-24 Min, Max) of 20700 to 91500 ng·h/mL and a Cmax (192 mg, Day 7, plasma, healthy volunteers, read-out: Cmax AM) of 5380 ng/mL. The Cmax (192 mg, Day 7, plasma, healthy volunteers, read-out: Cmax GM) was 5020 ng/mL, the Cmax (192 mg, Day 7, plasma, healthy volunteers, read-out: Cmax Median) was 4690 ng/mL and the Cmax (192 mg, Day 7, plasma, healthy volunteers, read-out: Cmax Min, Max) was 3120 to 10100 ng/mL. The Tmax (192 mg, Day 7, plasma, healthy volunteers, read-out: Tmax Median) was 4 h, the Tmax (192 mg, Day 7, plasma, healthy volunteers, read-out: Tmax Min, Max) was 4.01 to 4.08 h and the Cmax (384 mg, Day 1, plasma, Healthy Subjects, Table 10, read-out: Cmax Mean) was 6630 ng/mL. The Tmax (384 mg, Day 1, plasma, Healthy Subjects, Table 10, read-out: Tmax median) was 4 h, the AUC(0-t) (384 mg, Day 1, plasma, Healthy Subjects, read-out: AUC0-24 Mean) was 47600 ng·h/mL and the AUC(0-t) (384 mg, Day 1, plasma, healthy volunteers, read-out: AUC0-24 AM) was 47600 ng·h/mL. For the same molecule, the AUC(0-t) (384 mg, Day 1, plasma, healthy volunteers, read-out: AUC0-24 GM) was 35500 ng·h/mL, the AUC(0-t) (384 mg, Day 1, plasma, healthy volunteers, read-out: AUC0-24 Median) was 41900 ng·h/mL and the AUC(0-t) (384 mg, Day 1, plasma, healthy volunteers, read-out: AUC0-24 Min, Max) was 6640 to 105000 ng·h/mL. The Cmax (384 mg, Day 1, plasma, healthy volunteers, read-out: Cmax AM) was 6630 ng/mL, the Cmax (384 mg, Day 1, plasma, healthy volunteers, read-out: Cmax GM) was 5390 ng/mL and the Cmax (384 mg, Day 1, plasma, healthy volunteers, read-out: Cmax Median) was 5580 ng/mL. For the same molecule, the Cmax (384 mg, Day 1, plasma, healthy volunteers, read-out: Cmax Min, Max) was 1490 to 13700 ng/mL, the Tmax (384 mg, Day 1, plasma, healthy volunteers, read-out: Tmax Median) was 4 h and the Tmax (384 mg, Day 1, plasma, healthy volunteers, read-out: Tmax Min, Max) was 1.5 to 6 h. The Cmax (384 mg, Day 7, plasma, Healthy Subjects, Table 10, read-out: Cmax Mean) was 7850 ng/mL, the Tmax (384 mg, Day 7, plasma, Healthy Subjects, Table 10, read-out: Tmax median (range)) was 3.5 h and the AUC(0-t) (384 mg, Day 7, plasma, Healthy Subjects, read-out: AUC0-24 Mean) was 54900 ng·h/mL. The AUC(0-t) (384 mg, Day 7, plasma, healthy volunteers, read-out: AUC0-24 AM) was 54900 ng·h/mL, the AUC(0-t) (384 mg, Day 7, plasma, healthy volunteers, read-out: AUC0-24 GM) was 42100 ng·h/mL and the AUC(0-t) (384 mg, Day 7, plasma, healthy volunteers, read-out: AUC0-24 Median) was 50000 ng·h/mL. For the same molecule, the AUC(0-t) (384 mg, Day 7, plasma, healthy volunteers, read-out: AUC0-24 Min, Max) was 11500 to 125000 ng·h/mL, the Cmax (384 mg, Day 7, plasma, healthy volunteers, read-out: Cmax AM) was 7880 ng/mL and the Cmax (384 mg, Day 7, plasma, healthy volunteers, read-out: Cmax GM) was 6650 ng/mL. For the same molecule, the Cmax (384 mg, Day 7, plasma, healthy volunteers, read-out: Cmax Median) was 6500 ng/mL, the Cmax (384 mg, Day 7, plasma, healthy volunteers, read-out: Cmax Min, Max) was 2870 to 17900 ng/mL and the Tmax (384 mg, Day 7, plasma, healthy volunteers, read-out: Tmax Median) was 3.5 h. The Tmax (384 mg, Day 7, plasma, healthy volunteers, read-out: Tmax Min, Max) was 2.52 to 4.03 h.
